{"source": "patent US8580794B2", "about": "(AbbVie Inc., priority 2009, dated 2013)", "data": [{"molecular_target": "GST-Bc1-2 (Homo sapiens, UniProt P10415)", "sequence (P10415 whole entry)": "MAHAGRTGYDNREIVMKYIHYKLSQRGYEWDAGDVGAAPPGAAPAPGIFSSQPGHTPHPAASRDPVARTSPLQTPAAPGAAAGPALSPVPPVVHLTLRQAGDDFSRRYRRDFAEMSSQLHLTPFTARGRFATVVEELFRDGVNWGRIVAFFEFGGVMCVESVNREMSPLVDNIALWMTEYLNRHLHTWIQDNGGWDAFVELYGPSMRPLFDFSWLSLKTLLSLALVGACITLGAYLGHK", "test": "Time Resolved-Fluorescence Resonance Energy Transfer (TR-FRET) Bcl-2 binding assay with F-Bak peptide probe", "conditions": "GST-Bcl-2 1 nM, F-Bak probe 100 nM, Tb-anti-GST 1 nM; '<' = below limit of detection; read-out: TR-FRET Bcl-2 Binding Ki", "units": {"Ki": "pM"}, "values": [{"smiles": "CC1(C)CCC(CN2CCN(c3ccc(C(=O)NS(=O)(=O)c4ccc(NC5CCC(NC6CC6(F)F)CC5)c([N+](=O)[O-])c4)c(Oc4cnc5[nH]ccc5c4)c3)CC2)=C(c2ccc(Cl)cc2)C1", "note": "(stereo not shown) [Example 349, 4-(4-{[2-(4-chlorophenyl)-4,4-dimethylcyclohex-1-en-1-yl]methyl}piperazin-1-yl)-N-{[4-({4-[(2,2-difluorocyclopropyl)amino]cyclohexyl}amino)-3-nitrophenyl]sulfonyl}-2-(1H-pyrrolo[2,3-b]pyridin-5-yloxy)benzamide]", "Ki": 23}, {"smiles": "CC1(C)CCC(CN2CCN(c3ccc(C(=O)NS(=O)(=O)c4cnc(OCC5CCC(N(C6CC6)C6COC6)CC5)c(Cl)c4)c(Oc4cnc5[nH]ccc5c4)c3)CC2)=C(c2ccc(Cl)cc2)C1", "note": "(stereo not shown) [Example 329, N-{[5-chloro-6-({4-[cyclopropyl(oxetan-3-yl)amino]cyclohexyl}methoxy)pyridin-3-yl]sulfonyl}-4-(4-{[2-(4-chlorophenyl)-4,4-dimethylcyclohex-1-en-1-yl]methyl}piperazin-1-yl)-2-(1H-pyrrolo[2,3-b]pyridin-5-yloxy)benzamide]", "Ki": 30}, {"smiles": "CN1CCC(F)(COc2ccc(S(=O)(=O)NC(=O)c3ccc(N4CCN(CC5=C(c6ccc(Cl)cc6)CC(C)(C)CC5)CC4)cc3Oc3cnc4[nH]ccc4c3)cc2Cl)CC1", "note": "[Example 283, N-({3-chloro-4-[(4-fluoro-1-methylpiperidin-4-yl)methoxy]phenyl}sulfonyl)-4-(4-{[2-(4-chlorophenyl)-4,4-dimethylcyclohex-1-en-1-yl]methyl}piperazin-1-yl)-2-(1H-pyrrolo[2,3-b]pyridin-5-yloxy)benzamide]", "Ki": "< 10"}, {"smiles": "CC1(C)CCC(CN2CCN(c3ccc(C(=O)NS(=O)(=O)c4ccc(NCC5CN(CC#N)CCO5)c([N+](=O)[O-])c4)c(Oc4cnc5[nH]ccc5c4)c3)CC2)=C(c2ccc(Cl)cc2)C1", "note": "(stereo not shown) [Example 214, 4-(4-{[2-(4-chlorophenyl)-4,4-dimethylcyclohex-1-en-1-yl]methyl}piperazin-1-yl)-N-{[4-({[4-(cyanomethyl)morpholin-2-yl]methyl}amino)-3-nitrophenyl]sulfonyl}-2-(1H-pyrrolo[2,3-b]pyridin-5-yloxy)benzamide]", "Ki": "< 10"}, {"smiles": "CC1(C)CCCC(CN2CCN(c3ccc(C(=O)NS(=O)(=O)c4ccc(NCC5CCOCC5)c([N+](=O)[O-])c4)c(Oc4cnc5[nH]ccc5c4)c3)CC2)=C1c1ccc(Cl)cc1", "note": "[Example 150, 4-(4-{[2-(4-chlorophenyl)-3,3-dimethylcyclohex-1-en-1-yl]methyl}piperazin-1-yl)-N-({3-nitro-4-[(tetrahydro-2H-pyran-4-ylmethyl)amino]phenyl}sulfonyl)-2-(1H-pyrrolo[2,3-b]pyridin-5-yloxy)benzamide]", "Ki": "< 10"}, {"smiles": "CN1CCC(Nc2ccc(S(=O)(=O)NC(=O)c3ccc(N4CCN(CC5=C(c6ccc(Cl)cc6)CC(C)(C)OC5)CC4)cc3Oc3cnc4[nH]ccc4c3)cc2S(=O)(=O)C(F)(F)F)CC1", "note": "[Example 45, 4-(4-{[4-(4-chlorophenyl)-6,6-dimethyl-5,6-dihydro-2H-pyran-3-yl]methyl}piperazin-1-yl)-N-({4-[(1-methylpiperidin-4-yl)amino]-3-[(trifluoromethyl)sulfonyl]phenyl}sulfonyl)-2-(1H-pyrrolo[2,3-b]pyridin-5-yloxy)benzamide]", "Ki": "< 10"}, {"smiles": "CC1(C)CCC(CN2CCN(c3ccc(C(=O)NS(=O)(=O)c4ccc(NCCC(F)(F)F)c([N+](=O)[O-])c4)c(Oc4cnc5[nH]ccc5c4)c3)CC2)=C(c2ccc(Cl)cc2)C1", "note": "[Example 27, 4-(4-{[2-(4-chlorophenyl)-4,4-dimethylcyclohex-1-en-1-yl]methyl}piperazin-1-yl)-N-({3-nitro-4-[(3,3,3-trifluoropropyl)amino]phenyl}sulfonyl)-2-(1H-pyrrolo[2,3-b]pyridin-5-yloxy)benzamide]", "Ki": 134}, {"smiles": "C#Cc1cc(S(=O)(=O)NC(=O)c2ccc(N3CCN(CC4=C(c5ccc(Cl)cc5)CC(C)(C)CC4)CC3)cc2Oc2cnc3[nH]ccc3c2)cnc1OCC1CCOCC1", "note": "[Example 69, 4-(4-{[2-(4-chlorophenyl)-4,4-dimethylcyclohex-1-en-1-yl]methyl}piperazin-1-yl)-N-{[5-ethynyl-6-(tetrahydro-2H-pyran-4-ylmethoxy)pyridin-3-yl]sulfonyl}-2-(1H-pyrrolo[2,3-b]pyridin-5-yloxy)benzamide]", "Ki": 1160}, {"smiles": "CC1(C)CCC(CN2CCN(c3ccc(C(=O)NS(=O)(=O)c4ccc(N[C@H]5CC[C@@H](N6CCOCC6)CC5)c([N+](=O)[O-])c4)c(Oc4cnc5[nH]ccc5c4)c3)CC2)=C(c2ccc(Cl)cc2)C1", "note": "[Example 39, Cis-4-(4-{[2-(4-chlorophenyl)-4,4-dimethylcyclohex-1-en-1-yl]methyl}piperazin-1-yl)-N-({4-[(4-morpholin-4-ylcyclohexyl)amino]-3-nitrophenyl}sulfonyl)-2-(1H-pyrrolo[2,3-b]pyridin-5-yloxy)benzamide]", "Ki": 12}, {"smiles": "CC1(C)C=CC(c2ccc(Cl)cc2)=C(CN2CCN(c3ccc(C(=O)NS(=O)(=O)c4ccc(NCC5CCOCC5)c([N+](=O)[O-])c4)c(Oc4cnc5[nH]ccc5c4)c3)CC2)C1", "note": "[Example 206, 4-(4-{[2-(4-chlorophenyl)-5,5-dimethylcyclohexa-1,3-dien-1-yl]methyl}piperazin-1-yl)-N-({3-nitro-4-[(tetrahydro-2H-pyran-4-ylmethyl)amino]phenyl}sulfonyl)-2-(1H-pyrrolo[2,3-b]pyridin-5-yloxy)benzamide]", "Ki": 36}, {"smiles": "CC1(C)CCC(CN2CCN(c3ccc(C(=O)NS(=O)(=O)c4ccc(OCC5C[C@H]6C=C[C@@H]5C6)c([N+](=O)[O-])c4)c(Oc4cnc5[nH]ccc5c4)c3)CC2)=C(c2ccc(Cl)cc2)C1", "note": "(stereo partly drawn) [Example 201, N-({4-[(1S,4S)-bicyclo[2.2.1]hept-5-en-2-ylmethoxy]-3-nitrophenyl}sulfonyl)-4-(4-{[2-(4-chlorophenyl)-4,4-dimethylcyclohex-1-en-1-yl]methyl}piperazin-1-yl)-2-(1H-pyrrolo[2,3-b]pyridin-5-yloxy)benzamide]", "Ki": 14}, {"smiles": "CC1(C)CCC(CN2CCN(c3ccc(C(=O)NS(=O)(=O)c4cnc(OCC5(F)CCN(C(CF)CF)CC5)c(C(F)(F)F)c4)c(Oc4cnc5[nH]ccc5c4)c3)CC2)=C(c2ccc(Cl)cc2)C1", "note": "[Example 288, 4-(4-{[2-(4-chlorophenyl)-4,4-dimethylcyclohex-1-en-1-yl]methyl}piperazin-1-yl)-N-{[6-{[1-(1,3-difluoropropan-2-yl)-4-fluoropiperidin-4-yl]methoxy}-5-(trifluoromethyl)pyridin-3-yl]sulfonyl}-2-(1H-pyrrolo[2,3-b]pyridin-5-yloxy)benzamide]", "Ki": 251}, {"smiles": "CC1(C)CCC(CN2CCN(c3ccc(C(=O)NS(=O)(=O)c4cnc(OCC5CCOCC5)c(C(N)=O)c4)c(Oc4cnc5[nH]ccc5c4)c3)CC2)=C(c2ccc(Cl)cc2)C1", "note": "[Example 46, 5-({[4-(4-{[2-(4-chlorophenyl)-4,4-dimethylcyclohex-1-en-1-yl]methyl}piperazin-1-yl)-2-(1H-pyrrolo[2,3-b]pyridin-5-yloxy)benzoyl]amino}sulfonyl)-2-(tetrahydro-2H-pyran-4-ylmethoxy)nicotinamide]", "Ki": 935}, {"smiles": "CC1(C)CCC(CN2CCN(c3ccc(C(=O)NS(=O)(=O)c4cnc(OCC5CCC(F)(F)CC5)c(Cl)c4)c(Oc4cnc5[nH]ccc5c4)c3)CC2)=C(c2ccc(Cl)cc2)C1", "note": "[Example 287, N-({5-chloro-6-[(4,4-difluorocyclohexyl)methoxy]pyridin-3-yl}sulfonyl)-4-(4-{[2-(4-chlorophenyl)-4,4-dimethylcyclohex-1-en-1-yl]methyl}piperazin-1-yl)-2-(1H-pyrrolo[2,3-b]pyridin-5-yloxy)benzamide]", "Ki": 81}, {"smiles": "COC1(C)CCC(c2ccc(Cl)cc2)=C(CN2CCN(c3ccc(C(=O)NS(=O)(=O)c4ccc(NCC5CCOCC5)c([N+](=O)[O-])c4)c(Oc4cnc5[nH]ccc5c4)c3)CC2)C1", "note": "(stereo not shown) [Example 378, 4-(4-{[2-(4-chlorophenyl)-5-methoxy-5-methylcyclohex-1-en-1-yl]methyl}piperazin-1-yl)-N-({3-nitro-4-[(tetrahydro-2H-pyran-4-ylmethyl)amino]phenyl}sulfonyl)-2-(1H-pyrrolo[2,3-b]pyridin-5-yloxy)benzamide]", "Ki": "< 1"}, {"smiles": "COc1ccc(CNc2ccc(S(=O)(=O)NC(=O)c3ccc(N4CCN(CC5=C(c6ccc(Cl)cc6)CC(C)(C)CC5)CC4)cc3Oc3cnc4[nH]ccc4c3)cc2[N+](=O)[O-])cc1", "note": "[Example 174, 4-(4-{[2-(4-chlorophenyl)-4,4-dimethylcyclohex-1-en-1-yl]methyl}piperazin-1-yl)-N-({4-[(4-methoxybenzyl)amino]-3-nitrophenyl}sulfonyl)-2-(1H-pyrrolo[2,3-b]pyridin-5-yloxy)benzamide]", "Ki": "< 10"}, {"smiles": "CC1(C)CCC(CN2CCN(c3ccc(C(=O)NS(=O)(=O)c4cnc(NCC5CN(C6CC6)CCO5)c(Cl)c4)c(Oc4cnc5[nH]ccc5c4)c3)CC2)=C(c2ccc(Cl)cc2)C1", "note": "(stereo not shown) [Example 335, N-[(5-chloro-6-{[(4-cyclopropylmorpholin-2-yl)methyl]amino}pyridin-3-yl)sulfonyl]-4-(4-{[2-(4-chlorophenyl)-4,4-dimethylcyclohex-1-en-1-yl]methyl}piperazin-1-yl)-2-(1H-pyrrolo[2,3-b]pyridin-5-yloxy)benzamide]", "Ki": 150}, {"smiles": "CC1(C)CC(c2ccc(Cl)cc2)=C(CN2CCN(c3ccc(C(=O)NS(=O)(=O)c4cnc(OCC5CCOCC5)c(C#N)c4)c(Oc4cnc5[nH]ccc5c4)c3)CC2)CO1", "note": "[Example 35, 4-(4-{[4-(4-chlorophenyl)-6,6-dimethyl-5,6-dihydro-2H-pyran-3-yl]methyl}piperazin-1-yl)-N-{[5-cyano-6-(tetrahydro-2H-pyran-4-ylmethoxy)pyridin-3-yl]sulfonyl}-2-(1H-pyrrolo[2,3-b]pyridin-5-yloxy)benzamide]", "Ki": "< 10"}, {"smiles": "CC1(C)CCC(CN2CCN(c3ccc(C(=O)NS(=O)(=O)c4ccc(NCC5CCC6(CC5)COC6)c([N+](=O)[O-])c4)c(Oc4cnc5[nH]ccc5c4)c3)CC2)=C(c2ccc(Cl)cc2)C1", "note": "[Example 365, 4-(4-{[2-(4-chlorophenyl)-4,4-dimethylcyclohex-1-en-1-yl]methyl}piperazin-1-yl)-N-({3-nitro-4-[(2-oxaspiro[3.5]non-7-ylmethyl)amino]phenyl}sulfonyl)-2-(1H-pyrrolo[2,3-b]pyridin-5-yloxy)benzamide]", "Ki": "< 10"}]}]}
